Measurements from ChEMBL document CHEMBL3769376, “Discovery of I-BRD9, a Selective Cell Active Chemical Probe for Bromodomain Containing Protein 9 Inhibition” (J Med Chem, 2016).
Activity calls are given as the source filed them. The calls are words filed in the database; no cut-off is given here.

Key:
[1] = target: T1, Bromodomain-containing protein 9 (Homo sapiens, UniProt Q9H8M2); experiment: Inhibition of BRD9 (unknown origin) incubated in dark for 30 mins by TR-FRET assay
T1 sequence (Q9H8M2 whole entry): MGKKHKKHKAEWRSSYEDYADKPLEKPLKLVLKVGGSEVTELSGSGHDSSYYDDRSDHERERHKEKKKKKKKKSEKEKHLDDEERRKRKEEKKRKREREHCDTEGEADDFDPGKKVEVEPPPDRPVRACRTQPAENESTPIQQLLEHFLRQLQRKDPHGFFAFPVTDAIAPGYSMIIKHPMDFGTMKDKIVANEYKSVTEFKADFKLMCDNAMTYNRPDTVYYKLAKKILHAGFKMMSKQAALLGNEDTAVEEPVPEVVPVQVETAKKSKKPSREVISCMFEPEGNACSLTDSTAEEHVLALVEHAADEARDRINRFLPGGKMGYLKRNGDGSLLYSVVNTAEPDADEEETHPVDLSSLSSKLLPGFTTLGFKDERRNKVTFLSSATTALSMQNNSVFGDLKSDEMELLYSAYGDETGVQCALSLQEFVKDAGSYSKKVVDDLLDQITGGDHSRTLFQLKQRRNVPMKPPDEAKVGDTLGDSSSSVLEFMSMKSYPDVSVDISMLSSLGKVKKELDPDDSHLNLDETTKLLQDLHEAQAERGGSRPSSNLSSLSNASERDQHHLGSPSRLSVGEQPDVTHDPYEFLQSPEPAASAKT

[2] = target: Bromodomain-containing protein 4 (Homo sapiens, UniProt O60885); experiment: Inhibition of BRD4 bromodomain 1 (unknown origin) incubated in dark for 30 mins by TR-FRET assay
[3] = target: T2, Bromodomain-containing protein 9 (Homo sapiens) (UniProt Q9H8M2); experiment: Inhibition of BRD9 in human Kasumi-1 cells assessed as downregulation of CLEC1 gene at 1 uM after 6 hrs by qPCR method; format: cell-based
T2 sequence (whole entry): T1 sequence (Q9H8M2 whole entry)

[4] = target: T2, Bromodomain-containing protein 9 (Homo sapiens); experiment: Inhibition of BRD9 in human Kasumi-1 cells assessed as downregulation of SAMSN1 gene at 1 uM after 6 hrs by qPCR method; format: cell-based
[5] = target: T2, Bromodomain-containing protein 9 (Homo sapiens); experiment: Inhibition of BRD9 in human Kasumi-1 cells assessed as downregulation of FES gene at 1 uM after 6 hrs by qPCR method; format: cell-based
[6] = target: T2, Bromodomain-containing protein 9 (Homo sapiens); experiment: Inhibition of BRD9 in human Kasumi-1 cells assessed as downregulation of DUSP6 gene at 1 uM after 6 hrs by qPCR method; format: cell-based
[7] = Dissociation constant, pKa of the compound; format: physicochemical

COc1ccc(-c2cn(C)c(=O)c3cc(C(=O)N(C)C)sc23)cc1OC
IC50 [1]: 5010 nM
IC50 [2]: 12600 nM

COc1ccc(-c2cn(C)c(=O)c3cc(C(=O)NC4CCS(=O)(=O)CC4)sc23)cc1OC
IC50 [1]: 12.6 nM
IC50 [2]: 50.1 nM

COc1cccc(-c2cn(C)c(=O)c3cc(C(=N)NC4CCS(=O)(=O)CC4)sc23)c1
IC50 [1]: 12.6 nM
IC50 [2]: 794 nM

COc1cc2c(cc1-c1c(C)noc1C)ncc1[nH]c(=O)n([C@H](C)c3ccccn3)c12
inhibition [3]: inactive
inhibition [4]: inactive
inhibition [5]: inactive
inhibition [6]: inactive

CNC(=O)c1cc2c(=O)n(C)cc(-c3ccc(OC)c(OC)c3)c2s1
IC50 [1]: 126 nM
IC50 [2]: 200 nM

CN(C)c1cccc(-c2cn(C)c(=O)c3cc(C(=N)NC4CCS(=O)(=O)CC4)sc23)c1
IC50 [1]: 10 nM
IC50 [2]: 501 nM

COc1ccc(-c2cn(C)c(=O)c3cc(C(=O)N4CCN(S(C)(=O)=O)CC4)sc23)cc1OC
IC50 [1]: 200 nM
IC50 [2]: 20000 nM

COc1ccc(-c2cn(C)c(=O)c3cc(C(=O)N4CCCCC4)sc23)cc1OC
IC50 [1]: 3980 nM
IC50 [2]: 15800 nM

Cn1cc(-c2cccc(C#N)c2)c2sc(C(=N)NC3CCS(=O)(=O)CC3)cc2c1=O
IC50 [1]: 39.8 nM
IC50 [2]: 2510 nM

CNC(=N)c1cc2c(=O)n(C)cc(-c3ccc(OC)c(OC)c3)c2s1
IC50 [1]: 79.4 nM
IC50 [2]: 1260 nM

COc1ccc(-c2cn(C)c(=O)c3cc(C(=N)NC4CCS(=O)(=O)CC4)sc23)cc1OC
IC50 [1]: 7.94 nM
IC50 [2]: 398 nM

Cn1cc(-c2ccccc2)c2sc(C(=N)NC3CCS(=O)(=O)CC3)cc2c1=O
IC50 [1]: 39.8 nM
IC50 [2]: 1580 nM

Cn1cc(-c2cccc(C(F)(F)F)c2)c2sc(C(=N)NC3CCS(=O)(=O)CC3)cc2c1=O
pKa [7]: 8.4
IC50 [1]: 15.8 nM
IC50 [2]: 2510 nM

CC(C)n1cc(-c2cccc(C(F)(F)F)c2)c2sc(C(=N)NC3CCS(=O)(=O)CC3)cc2c1=O
IC50 [1]: 3160 nM
IC50 [2]: > 50100 nM
